Active and inactive are the calls of the source. The rule behind the calls is not given here.
Legend:
[1] = biological target: T1, Glucocorticoid receptor (Homo sapiens) (UniProt P04150); assay: Percent inhibition of glucocorticoid receptor transcriptional activity at Dexamethasone EC50; NA=not active; format: functional
T1 sequence (whole entry): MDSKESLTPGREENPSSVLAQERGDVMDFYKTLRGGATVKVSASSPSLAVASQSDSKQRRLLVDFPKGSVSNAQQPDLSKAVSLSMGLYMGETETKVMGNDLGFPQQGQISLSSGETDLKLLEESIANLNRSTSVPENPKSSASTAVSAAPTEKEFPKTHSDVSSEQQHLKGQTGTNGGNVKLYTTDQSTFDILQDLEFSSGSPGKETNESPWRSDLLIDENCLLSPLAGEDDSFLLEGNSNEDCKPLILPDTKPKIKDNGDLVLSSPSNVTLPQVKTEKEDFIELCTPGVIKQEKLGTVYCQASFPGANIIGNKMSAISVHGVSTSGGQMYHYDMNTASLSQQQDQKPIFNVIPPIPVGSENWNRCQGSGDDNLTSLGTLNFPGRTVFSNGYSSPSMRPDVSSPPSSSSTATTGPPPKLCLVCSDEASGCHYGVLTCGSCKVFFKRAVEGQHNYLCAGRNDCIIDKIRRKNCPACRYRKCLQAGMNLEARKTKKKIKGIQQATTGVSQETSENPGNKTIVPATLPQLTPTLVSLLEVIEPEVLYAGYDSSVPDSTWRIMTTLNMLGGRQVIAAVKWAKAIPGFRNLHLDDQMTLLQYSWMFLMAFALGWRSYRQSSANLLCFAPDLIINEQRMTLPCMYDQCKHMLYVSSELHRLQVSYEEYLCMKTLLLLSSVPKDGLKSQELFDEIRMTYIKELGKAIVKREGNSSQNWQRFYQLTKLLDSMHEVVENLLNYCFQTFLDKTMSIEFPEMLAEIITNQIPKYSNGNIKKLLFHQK

Glucocorticoid receptor = biological target: T2, Glucocorticoid receptor (Homo sapiens, UniProt P04150); assay: Cross-reactivity as binding to human glucocorticoid receptor (hGR); NA=not active; format: functional
T2 sequence (P04150 whole entry): T1 sequence (whole entry)

Progesterone receptor = biological target: T3, Progesterone receptor (Homo sapiens, UniProt P06401); assay: Human progesterone receptor (hPR) agonist activity in T47D human breast cancer cell line; format: functional, cell-based
T3 sequence (P06401 whole entry): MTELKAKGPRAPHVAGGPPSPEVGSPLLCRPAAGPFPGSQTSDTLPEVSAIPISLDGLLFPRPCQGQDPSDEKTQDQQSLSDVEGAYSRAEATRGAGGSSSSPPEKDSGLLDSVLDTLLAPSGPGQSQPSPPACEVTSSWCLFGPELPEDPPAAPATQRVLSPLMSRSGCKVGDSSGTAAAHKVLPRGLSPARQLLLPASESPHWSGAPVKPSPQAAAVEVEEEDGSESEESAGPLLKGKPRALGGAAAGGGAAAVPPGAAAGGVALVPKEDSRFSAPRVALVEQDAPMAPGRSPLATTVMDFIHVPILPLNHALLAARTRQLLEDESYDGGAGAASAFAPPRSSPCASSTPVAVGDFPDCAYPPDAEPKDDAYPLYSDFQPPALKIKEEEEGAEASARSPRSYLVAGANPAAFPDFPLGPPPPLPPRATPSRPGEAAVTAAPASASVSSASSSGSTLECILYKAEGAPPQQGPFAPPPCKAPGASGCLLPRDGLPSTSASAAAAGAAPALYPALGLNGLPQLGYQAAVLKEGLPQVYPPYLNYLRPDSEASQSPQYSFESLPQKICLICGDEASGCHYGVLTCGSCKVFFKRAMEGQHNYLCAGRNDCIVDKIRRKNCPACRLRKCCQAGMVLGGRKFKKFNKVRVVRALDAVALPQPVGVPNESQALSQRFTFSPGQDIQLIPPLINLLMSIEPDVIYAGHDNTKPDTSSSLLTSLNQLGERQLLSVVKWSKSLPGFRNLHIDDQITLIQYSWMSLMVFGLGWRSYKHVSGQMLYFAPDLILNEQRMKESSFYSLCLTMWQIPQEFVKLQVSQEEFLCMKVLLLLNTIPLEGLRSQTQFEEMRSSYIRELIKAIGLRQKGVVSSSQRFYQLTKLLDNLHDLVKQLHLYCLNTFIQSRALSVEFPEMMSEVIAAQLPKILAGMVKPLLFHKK

## CC1=CC(C)(C)Nc2ccc(-c3ccc([N+](=O)[O-])s3)cc21
[1]
  Efficacy: inactive
Glucocorticoid receptor
  IC50: Not Active
Progesterone receptor
  EC50: 1020 nM

— ChEMBL document CHEMBL1133403 (Bioorg Med Chem Lett, 2000)
